How the values were obtained:
Experiment in all cases: In vitro competitive activity-based protein profiling (gel-based, FP-Rh or HT-01 probe)
Assay type in all cases: biochemical
[1] = target: T1, ABHD6 (Mus musculus, UniProt Q8R2Y0); conditions: for inhibition at 1 µM: 1 μM inhibitor, read-out: % Inhibition at 1 μM, C = ABHD6; for inhibition at 10 µM: 10 μM inhibitor, read-out: % Inhibition at 10 μM, C = ABHD6
T1 construct: Proteomes (mouse brain membrane fraction or cell lysates); from tissue; host or cells: mouse brain membrane fraction (or cell lysates, not specified)
T1 sequence (Q8R2Y0 1-336): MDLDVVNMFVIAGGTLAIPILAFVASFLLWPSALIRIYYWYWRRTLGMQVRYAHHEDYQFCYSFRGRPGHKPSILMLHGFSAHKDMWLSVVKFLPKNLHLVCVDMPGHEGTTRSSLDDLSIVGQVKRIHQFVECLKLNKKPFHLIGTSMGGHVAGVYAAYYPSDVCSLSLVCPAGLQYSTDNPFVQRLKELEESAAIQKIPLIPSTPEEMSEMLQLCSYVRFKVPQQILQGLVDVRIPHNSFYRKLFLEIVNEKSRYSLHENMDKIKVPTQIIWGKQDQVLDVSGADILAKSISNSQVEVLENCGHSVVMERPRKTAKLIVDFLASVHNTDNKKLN
Protocol: (§1) In Vitro Competitive Activity-Based Protein Profiling.
(§2) Proteomes (mouse brain membrane fraction or cell lysates) (50 μL, 1.0 mg/mL total protein concentration) were preincubated with varying concentrations of inhibitors at 37° C. After 30 min, FP-Rh or HT-01 ([…], 50 μM in DMSO) was added and the mixture was incubated for another 30 min at 37° C. Reactions were quenched with SDS loading buffer (15 μL—4×) and run on SDS-PAGE. Following gel imaging, serine hydrolase activity was determined by measuring fluorescent intensity of gel bands corresponding to MAGL, ABHD6, FAAH, and PLA2G7 using ImageJ 1.43u software.

[2] = target: T2, FAAH (Mus musculus, UniProt O08914); conditions: for inhibition at 1 µM: 1 μM inhibitor, read-out: % Inhibition at 1 μM, B = FAAH; for inhibition at 10 µM: 10 μM inhibitor, read-out: % Inhibition at 10 μM, B = FAAH
T2 construct: Proteomes (mouse brain membrane fraction or cell lysates); from tissue; host or cells: mouse brain membrane fraction (or cell lysates, not specified)
T2 sequence (O08914 1-579): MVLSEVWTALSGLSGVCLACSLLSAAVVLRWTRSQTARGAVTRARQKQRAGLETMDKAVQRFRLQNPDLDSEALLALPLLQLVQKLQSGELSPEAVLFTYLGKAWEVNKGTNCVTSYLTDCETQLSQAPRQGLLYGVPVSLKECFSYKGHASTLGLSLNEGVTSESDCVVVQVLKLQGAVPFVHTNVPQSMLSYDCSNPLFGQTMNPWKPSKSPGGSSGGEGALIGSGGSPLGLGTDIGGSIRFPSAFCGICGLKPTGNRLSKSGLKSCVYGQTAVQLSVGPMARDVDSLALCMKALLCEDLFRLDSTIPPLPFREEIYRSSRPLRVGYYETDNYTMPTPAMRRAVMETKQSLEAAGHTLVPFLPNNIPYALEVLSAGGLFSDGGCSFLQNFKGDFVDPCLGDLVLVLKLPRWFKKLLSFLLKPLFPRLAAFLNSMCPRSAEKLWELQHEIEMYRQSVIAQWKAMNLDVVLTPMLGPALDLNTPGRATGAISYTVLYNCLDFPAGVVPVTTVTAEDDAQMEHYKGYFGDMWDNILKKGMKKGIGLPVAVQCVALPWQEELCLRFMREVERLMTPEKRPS
Protocol: as §1, §2

[3] = target: T3, MAGL (Mus musculus, UniProt O35678); conditions: for inhibition at 1 µM: 1 μM inhibitor; for inhibition at 10 µM: 10 μM inhibitor; for IC50: mouse brain membrane fraction or cell lysates, 30 min preincubation at 37° C., read-out: Mouse (IC50 value, nM) MAGL
T3 construct: Proteomes (mouse brain membrane fraction or cell lysates); from tissue; host or cells: mouse brain membrane fraction (or cell lysates, not specified)
T3 sequence (O35678 1-303): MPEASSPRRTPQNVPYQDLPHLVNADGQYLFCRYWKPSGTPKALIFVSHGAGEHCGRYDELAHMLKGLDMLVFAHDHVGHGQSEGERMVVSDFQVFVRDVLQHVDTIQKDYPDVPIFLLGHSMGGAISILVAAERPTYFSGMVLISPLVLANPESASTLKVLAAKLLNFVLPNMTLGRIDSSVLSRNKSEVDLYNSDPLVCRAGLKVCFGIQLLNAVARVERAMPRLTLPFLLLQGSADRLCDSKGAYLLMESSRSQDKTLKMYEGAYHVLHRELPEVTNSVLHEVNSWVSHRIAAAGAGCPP
Protocol: as §1, §2

[4] = target: T4, PLA2G7 (Mus musculus, UniProt Q60963); conditions: for inhibition at 1 µM: 1 μM inhibitor, read-out: % Inhibition at 1 μM, D = PLA2G7; for inhibition at 10 µM: 10 μM inhibitor, read-out: % Inhibition at 10 μM, D = PLA2G7
T4 construct: Proteomes (mouse brain membrane fraction or cell lysates); from tissue; host or cells: mouse brain membrane fraction (or cell lysates, not specified)
T4 sequence (Q60963 22-440): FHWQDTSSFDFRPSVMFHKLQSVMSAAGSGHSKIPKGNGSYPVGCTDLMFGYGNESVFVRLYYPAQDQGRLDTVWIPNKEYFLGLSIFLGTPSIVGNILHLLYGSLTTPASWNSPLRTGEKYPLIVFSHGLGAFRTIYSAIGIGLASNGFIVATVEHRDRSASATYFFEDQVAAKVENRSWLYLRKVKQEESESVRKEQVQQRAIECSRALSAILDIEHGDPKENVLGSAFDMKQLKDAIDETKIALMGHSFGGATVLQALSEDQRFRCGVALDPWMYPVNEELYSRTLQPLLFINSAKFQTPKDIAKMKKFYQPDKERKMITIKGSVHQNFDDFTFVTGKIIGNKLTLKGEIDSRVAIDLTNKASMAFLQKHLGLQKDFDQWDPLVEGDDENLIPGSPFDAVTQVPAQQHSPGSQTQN
Protocol: as §1, §2

Structure (SMILES)	inhibition at 1 µM [1] [%]	inhibition at 10 µM [1] [%]	inhibition at 1 µM [2] [%]	inhibition at 10 µM [2] [%]	inhibition at 1 µM [3] [%]	inhibition at 10 µM [3] [%]	inhibition at 1 µM [4] [%]	inhibition at 10 µM [4] [%]	IC50 ([1]; mouse brain membrane fraction or cell lysates, 30 min preincubation at 37° C., read-out: Mouse (IC50 value, nM) ABHD6) [nM]	IC50 ([2]; mouse brain membrane fraction or cell lysates, 30 min preincubation at 37° C., read-out: Mouse (IC50 value, nM) FAAH) [nM]	IC50 [3] [nM]
CC(C)(C)OC(=O)N1CCN(C(=O)n2cccn2)CC1 [Example 4, tert-Butyl 4-(1H-pyrazole-1-carbonyl)piperazine-1-carboxylate]	25 to 75	> 75	> 75	> 75	< 25	25 to 75	< 25	> 75	–	–	–
Cc1cnn(C(=O)N2CCN(C(=O)OC(C)(C)C)CC2)c1 [Example 5, tert-Butyl 4-(4-methyl-1H-pyrazole-1-carbonyl)piperazine-1-carboxylate]	25 to 75	> 75	< 25	> 75	< 25	25 to 75	> 75	> 75	–	–	–
CC(C)(C)OC(=O)N1CCN(C(=O)n2cc(C#N)cn2)CC1 [Example 6, tert-Butyl 4-(4-cyano-1H-pyrazole-1-carbonyl)piperazine-1-carboxylate]	> 75	> 75	> 75	> 75	> 75	> 75	> 75	> 75	–	–	–
O=C(N1CCN(Cc2ccccc2)CC1)n1cccn1 [Example 7, (4-Benzylpiperazin-1-yl)(1H-pyrazol-1-yl)methanone]	< 25	> 75	< 25	> 75	> 75	> 75	< 25	< 25	–	–	–
N#Cc1cnn(C(=O)N2CCN(Cc3ccccc3)CC2)c1 [Example 9, 1-(4-Benzylpiperazine-1-carbonyl)-1H-pyrazole-4-carbonitrile]	> 75	> 75	> 75	> 75	> 75	> 75	> 75	> 75	< 100	100 to 1000	< 100
O=C(N1CCN(Cc2ccc(Oc3ccccc3)cc2)CC1)n1cccn1 [Example 16, (4-(4-Phenoxybenzyl)piperazin-1-yl)(1H-pyrazol-1-yl)methanone]	> 75	> 75	< 25	> 75	> 75	> 75	< 25	> 75	–	–	–

Results, then the compound that gave them:

inhibition at 1 µM [1] [%]	inhibition at 10 µM [1] [%]	inhibition at 1 µM [2] [%]	inhibition at 10 µM [2] [%]	inhibition at 1 µM [3] [%]	inhibition at 10 µM [3] [%]	inhibition at 1 µM [4] [%]	inhibition at 10 µM [4] [%]	IC50 ([1]; mouse brain membrane fraction or cell lysates, 30 min preincubation at 37° C., read-out: Mouse (IC50 value, nM) ABHD6) [nM]	IC50 ([2]; mouse brain membrane fraction or cell lysates, 30 min preincubation at 37° C., read-out: Mouse (IC50 value, nM) FAAH) [nM]	IC50 [3] [nM]	Structure (SMILES)
> 75	> 75	< 25	25 to 75	25 to 75	> 75	< 25	> 75	–	–	–	Cc1cnn(C(=O)N2CCN(Cc3ccccc3)CC2)c1 [Example 8, (4-Benzylpiperazin-1-yl)(4-methyl-1H-pyrazol-1-yl)methanone]
> 75	> 75	> 75	> 75	> 75	> 75	< 25	< 25	–	–	< 100	O=C(N1CCN(Cc2ccc3ccccc3c2)CC1)n1cccn1 [Example 10, (4-(naphthalen-2-ylmethyl)piperazin-1-yl)(1H-pyrazol-1-yl)methanone]
> 75	> 75	< 25	25 to 75	> 75	> 75	< 25	> 75	–	–	–	Cc1cnn(C(=O)N2CCN(Cc3ccc4ccccc4c3)CC2)c1 [Example 11, (4-Methyl-1H-pyrazol-1-yl)(4-(naphthalen-2-ylmethyl)piperazin-1-yl)methanone]
> 75	> 75	> 75	> 75	> 75	> 75	> 75	> 75	–	–	–	N#Cc1cnn(C(=O)N2CCN(Cc3ccc4ccccc4c3)CC2)c1 [Example 12, 1-(4-(Naphthalen-2-ylmethyl)piperazine-1-carbonyl)-1H-pyrazole-4-carbonitrile]
> 75	> 75	> 75	> 75	> 75	> 75	> 75	> 75	–	–	–	O=C(N1CCN(Cc2ccc3ccccc3c2)CC1)n1cc(Br)cn1 [Example 13, (4-Bromo-1H-pyrazol-1-yl)(4-(naphthalen-2-ylmethyl)piperazin-1-yl)methanone]
> 75	> 75	> 75	> 75	> 75	> 75	> 75	> 75	–	–	–	O=C(N1CCN(Cc2ccc3ccccc3c2)CC1)n1cc(I)cn1 [Example 14, (4-Iodo-1H-pyrazol-1-yl)(4-(naphthalen-2-ylmethyl)piperazin-1-yl)methanone]
> 75	> 75	> 75	> 75	> 75	> 75	> 75	> 75	–	–	–	COC(=O)c1cnn(C(=O)N2CCN(Cc3ccc4ccccc4c3)CC2)c1 [Example 15, Methyl 1-(4-(naphthalen-2-ylmethyl)piperazine-1-carbonyl)-1H-pyrazole-4-carboxylate]
> 75	> 75	25 to 75	> 75	> 75	> 75	25 to 75	< 25	–	–	–	Cc1cnn(C(=O)N2CCN(Cc3ccc(Oc4ccccc4)cc3)CC2)c1 [Example 17, (4-Methyl-1H-pyrazol-1-yl)(4-(4-phenoxybenzyl)piperazin-1-yl)methanone]

— patent publication US10093630B2, “Pyrazole compounds and methods of making and using same” (ABIDE THERAPEUTICS, INC., priority 2014, dated 2018)
